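Five concentrations, 48 hours, 96-well plates. Here, GI50 denotes the concentration required for 50% inhibition of growth.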 The source made the active and inactive calls. Rule as the data show it: active = GI50 up to about 1.1 µM and inactive = higher.
Key:
Assay in all cases: NCI tumour cell line growth inhibition, 48 h
A498 = tested on: A498
ACHN = tested on: ACHN
HCC 2998 = tested on: HCC 2998
HL-60 = tested on: HL-60
IGROV-1 = tested on: IGROV-1
K562 = tested on: K562
KM12 = tested on: KM12
LOX IMVI = tested on: LOX IMVI
Malme-3M = tested on: Malme-3M
NCI-H23 = tested on: NCI-H23
NCI-H460 = tested on: NCI-H460
OVCAR-8 = tested on: OVCAR-8
SK-MEL-28 = tested on: SK-MEL-28
SNB-19 = tested on: SNB-19
SW-620 = tested on: SW-620
UACC-62 = tested on: UACC-62

SMILES | GI50 (A498) | GI50 (ACHN) | GI50 (HCC 2998) | GI50 (HL-60) | GI50 (IGROV-1) | GI50 (K562) | GI50 (KM12) | GI50 (LOX IMVI) | GI50 (Malme-3M) | GI50 (NCI-H23) | GI50 (NCI-H460) | GI50 (OVCAR-8) | GI50 (SK-MEL-28) | GI50 (SNB-19) | GI50 (SW-620) | GI50 (UACC-62)
CCC1(C(=O)OC)CCc2c(OC)ccc(OC)c2C1=O (configuration not stated) | > 100 µM (inactive) | > 100 µM (inactive) | > 100 µM (inactive) | > 100 µM (inactive) | > 100 µM (inactive) | > 100 µM (inactive) | > 100 µM (inactive) | > 100 µM (inactive) | > 100 µM (inactive) | > 100 µM (inactive) | > 100 µM (inactive) | > 100 µM (inactive) | > 100 µM (inactive) | > 100 µM (inactive) | > 100 µM (inactive) | > 100 µM (inactive)
Cc1nc(Nc2ccc([N+](=O)[O-])cc2)sc1C(/C=C/c1ccc(N(C)C)cc1)=N/NC(=O)c1ccccc1 |  | 39.6 µM (inactive) | 41.3 µM (inactive) | 22.6 µM (inactive) | 51.3 µM (inactive) | 18.5 µM (inactive) | 36.4 µM (inactive) | 36.6 µM (inactive) | 70 µM (inactive) | 47.8 µM (inactive) | 59.6 µM (inactive) | > 100 µM (inactive) | > 100 µM (inactive) | 62.2 µM (inactive) | 45.6 µM (inactive) | 4.84 µM (inactive)
Cc1c(Cl)cccc1N1C(=O)C(Cl)=C(Cl)C1=O | > 100 µM (inactive) | > 100 µM (inactive) | > 100 µM (inactive) |  | > 100 µM (inactive) | 17.9 µM (inactive) | > 100 µM (inactive) | > 100 µM (inactive) | > 100 µM (inactive) | > 100 µM (inactive) | > 100 µM (inactive) | > 100 µM (inactive) | > 100 µM (inactive) | > 100 µM (inactive) | > 58.2 µM (inactive) | > 100 µM (inactive)
COc1ccc(/C(C#N)=C(/N)SCc2ccccc2Cl)cc1 | 18.9 µM (inactive) | > 10 µM (inactive) | 17 µM (inactive) | 14.3 µM (inactive) | 29.2 µM (inactive) | 18.5 µM (inactive) | > 10 µM (inactive) | 15.2 µM (inactive) | 17.5 µM (inactive) | 16.8 µM (inactive) |  | > 10 µM (inactive) | 17.9 µM (inactive) | > 10 µM (inactive) | 16.1 µM (inactive) | 11.9 µM (inactive)
CCC12CC[C@H](C#N)N3CCc4c(n(c5ccccc45)C(=O)C1)C32 (some centres not stated) | 13.3 µM (inactive) | > 10 µM (inactive) | 15.8 µM (inactive) |  | 24.8 µM (inactive) | 5.28 µM (inactive) | 8.17 µM (inactive) | 14.1 µM (inactive) | 4.02 µM (inactive) | 15.4 µM (inactive) | 13.3 µM (inactive) | 19.9 µM (inactive) | 15.2 µM (inactive) | > 10 µM (inactive) | 14.9 µM (inactive) | 12.2 µM (inactive)
CCOC(=O)C[C@@]12CCCNC1(C)CCc1ccccc12 (some centres not stated) |  | > 100 µM (inactive) |  | > 100 µM (inactive) | > 100 µM (inactive) | > 100 µM (inactive) | > 100 µM (inactive) | > 100 µM (inactive) | > 100 µM (inactive) |  | > 100 µM (inactive) | > 100 µM (inactive) |  | > 100 µM (inactive) | > 100 µM (inactive) | > 100 µM (inactive)
COc1cc(C=O)c(-c2cc3c(cc2C=O)OCO3)c(OC)c1OC |  | > 290 µM (inactive) | 210 µM (inactive) | 94.8 µM (inactive) | 143 µM (inactive) | 87.1 µM (inactive) | 59.3 µM (inactive) | 85.7 µM (inactive) | 96.6 µM (inactive) | 63.1 µM (inactive) | 103 µM (inactive) | 117 µM (inactive) | 144 µM (inactive) | 202 µM (inactive) | 94.6 µM (inactive) | 90.6 µM (inactive)
C[C@@H]1C[C@@H]([C@H](O)CC2CC(=O)NC(=O)C2)C(=O)[C@@H](C)C1 [CYCLOHEXIMIDE] |  | 0.0291 µM (active) | 0.0378 µM (active) | 0.0485 µM (active) | 0.0532 µM (active) | 0.0528 µM (active) | 0.0202 µM (active) | 0.0374 µM (active) | 0.0889 µM (active) | 0.0516 µM (active) | 0.122 µM (active) | 0.044 µM (active) | 0.0352 µM (active) | 0.0984 µM (active) | 0.0462 µM (active) | 0.118 µM (active)
COc1cc(C)c(CC/C(C)=C/Cc2cc(O)ccc2O)c(C)c1C [PANICEIN A HYDROQUINONE] | > 25 µM (inactive) | > 25 µM (inactive) | > 25 µM (inactive) | > 25 µM (inactive) | > 25 µM (inactive) | > 25 µM (inactive) | > 25 µM (inactive) |  | > 25 µM (inactive) | > 25 µM (inactive) | > 25 µM (inactive) | > 25 µM (inactive) | > 25 µM (inactive) | > 25 µM (inactive) | > 25 µM (inactive) | 

From ChEMBL document CHEMBL1201862, “PubChem BioAssay data set” (2004)
